This is an account of results in ChEMBL document CHEMBL4316582, “Nitro-Group-Containing Drugs” (J Med Chem, 2019).

The subject of experiment [1] is SK-OV-3. Description: Cytotoxicity against human SKOV3 cells. In kind it is functional, cell-based.
Experiment [2] deals with NCI-H460. In words: Antiproliferative activity against human NCI-H460 cells in presence of N2. The format is functional, cell-based.
The subject of experiment [3] is NCI-H460. Description: Antiproliferative activity against human NCI-H460 cells in presence of O2. In kind it is functional, cell-based.
In experiment [4] the test system is NCI-H460. In words: Antiproliferative activity against human NCI-H460 cells. In kind it is functional, cell-based.
For experiment [5], the system named is NCI-H460. Description: Cytotoxicity against human NCI-H460 cells assessed as reduction in cell viability after 2 hrs by Alamar blue assay. In kind it is functional, cell-based. The conditions noted are these: NCI-H460, 2 h. Background: Resazurin is reduced to fluorescent resorufin, in cell work by metabolically active cells.
Experiment [6] has as its system HT-29. In words: Cytotoxicity against human HT-29 cells assessed as reduction in cell viability after 2 hrs by Alamar blue assay. The format is functional, cell-based. The note with it: HT-29, 2 h.
Experiment [7] addresses Epidermal growth factor receptor (Homo sapiens, UniProt P00533). In words: Inhibition of erbB1 (unknown origin) using FRET-capable peptide substrate by FRET assay.
The nature of experiment [8]: Cytotoxicity against human MiaPaCa cells assessed as reduction in cell viability after 2 hrs by Alamar blue assay. The conditions noted are these: MIA PaCa-2, 2 h. In kind it is functional, cell-based.
Experiment [9] has as its system NCI-H460. Description: Cytotoxicity against human NCI-H460 cells assessed as reduction in cell viability after 2 hrs under normoxic conditions by Alamar blue assay. In kind it is functional, cell-based. The conditions noted are these: NCI-H460, 2 h.
Experiment [10] has as its system NCI-H460. In words: Cytotoxicity against human NCI-H460 cells assessed as reduction in cell viability after 2 hrs under hypoxic conditions by Alamar blue assay. In kind it is functional, cell-based. The conditions noted are these: NCI-H460, 2 h.
The subject of experiment [11] is Hep 3B2. In words: Cytotoxicity against human Hep3B cells after 24 hrs by MTS assay. In kind it is functional, cell-based.
Experiment [12] concerns Hep 3B2. In words: Cytotoxicity against human Hep3B cells after 24 hrs under hypoxic condition by MTS assay. The format is functional, cell-based. (Tetrazolium dyes change colour on reduction, which living cells bring about.)
The subject of experiment [13] is HT-29. Description: Cytotoxicity against human HT-29 cells. In kind it is functional, cell-based.

Sequence of Epidermal growth factor receptor (P00533 whole entry): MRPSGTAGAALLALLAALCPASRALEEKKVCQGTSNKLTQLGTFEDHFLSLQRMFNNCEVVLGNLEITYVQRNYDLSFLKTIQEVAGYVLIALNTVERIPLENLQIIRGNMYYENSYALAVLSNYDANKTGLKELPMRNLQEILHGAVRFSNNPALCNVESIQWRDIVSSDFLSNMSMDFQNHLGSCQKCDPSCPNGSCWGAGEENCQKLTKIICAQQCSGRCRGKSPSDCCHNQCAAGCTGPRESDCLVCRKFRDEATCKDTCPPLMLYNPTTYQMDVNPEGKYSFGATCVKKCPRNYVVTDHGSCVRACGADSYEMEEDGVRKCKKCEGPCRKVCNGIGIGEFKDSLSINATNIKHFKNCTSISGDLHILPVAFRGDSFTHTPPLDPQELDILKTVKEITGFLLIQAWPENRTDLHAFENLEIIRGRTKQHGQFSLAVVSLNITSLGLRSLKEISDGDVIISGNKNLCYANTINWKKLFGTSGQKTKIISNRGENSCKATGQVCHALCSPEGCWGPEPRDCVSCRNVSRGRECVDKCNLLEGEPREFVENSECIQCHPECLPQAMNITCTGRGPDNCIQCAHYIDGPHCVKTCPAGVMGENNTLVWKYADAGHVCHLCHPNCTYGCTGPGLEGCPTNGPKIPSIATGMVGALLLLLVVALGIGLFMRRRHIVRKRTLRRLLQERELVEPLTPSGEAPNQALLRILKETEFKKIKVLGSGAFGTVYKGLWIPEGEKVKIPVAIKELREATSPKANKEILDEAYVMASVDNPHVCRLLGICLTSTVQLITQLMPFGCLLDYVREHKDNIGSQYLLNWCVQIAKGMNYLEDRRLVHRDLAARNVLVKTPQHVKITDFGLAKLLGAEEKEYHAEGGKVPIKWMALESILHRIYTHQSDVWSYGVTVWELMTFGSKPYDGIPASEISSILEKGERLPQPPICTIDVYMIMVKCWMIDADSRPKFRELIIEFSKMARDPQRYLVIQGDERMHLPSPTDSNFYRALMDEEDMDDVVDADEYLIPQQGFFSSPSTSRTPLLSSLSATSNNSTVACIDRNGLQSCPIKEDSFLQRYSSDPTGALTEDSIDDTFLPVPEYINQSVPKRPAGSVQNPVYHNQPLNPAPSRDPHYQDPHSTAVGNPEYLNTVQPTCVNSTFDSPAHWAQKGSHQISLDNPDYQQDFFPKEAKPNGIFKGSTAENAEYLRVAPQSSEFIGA

One may read the IC50 as the concentration that inhibits the measured activity by half. Take `CC(OP(N)(=O)N(CCCl)CCCl)c1ccc([N+](=O)[O-])cc1` (stereo not given): the IC50 in experiment [1] amounted to 1800 nM. Still for that read-out and setting: the value for `COc1cc([N+](=O)[O-])ccc1COP(N)(=O)N(CCCl)CCCl` (stereo not given) was 1800 nM; that for `COc1cc(COP(N)(=O)N(CCCl)CCCl)ccc1[N+](=O)[O-]` (stereo not given) was 3100 nM. On the same count and under the same terms, for `Cc1cc(COP(N)(=O)N(CCCl)CCCl)ccc1[N+](=O)[O-]` (stereo not given) the value was 3300 nM; for `NP(=O)(OCc1ccc([N+](=O)[O-])cc1)N(CCCl)CCCl` (stereo not given), 1100 nM. On to `COC(=O)c1cc(COP(N)(=O)N(CCCl)CCCl)ccc1[N+](=O)[O-]` (stereo not given), for which the IC50 in experiment [1] was 2100 nM. Regarding `Cn1c(COP(=O)(N(CCCl)CCCl)N(CCCl)CCCl)ccc1[N+](=O)[O-]`, the IC50 is 7 nM in [2], 850 nM in experiment [3] and more than 1000 nM in [4]. On to `CC#Cc1c(OC)ccc2c(C(=O)c3cc(OC)c(OC)c(OC)c3)nn(C[N+](C)(C)Cc3c(CC)nc([N+](=O)[O-])n3C)c12`, for which the IC50 in experiment [5] was determined as 42 nM; in experiment [6], 9 nM. Consider `C[N+](C)(C/C=C/C(=O)Nc1ccc2ncnc(Nc3cccc(Br)c3)c2c1)Cc1ccc([N+](=O)[O-])cc1`, for which the IC50 in experiment [7] was in the range of 0.22 to 0.56 nM. As to `CC#Cc1c(OC)ccc2c(C(=O)c3cc(OC)c(OC)c(OC)c3)nn(C[N+](C)(C)Cc3c(-c4ccccc4)nc([N+](=O)[O-])n3C)c12`, the IC50 in [8] was 16 nM; in experiment [5], 12 nM; in experiment [6] it was 6 nM.

On to `CC#Cc1c(OC)ccc2c(C(=O)c3cc(OC)c(OC)c(OC)c3)nn(C[N+](C)(C)Cc3c(Br)nc([N+](=O)[O-])n3C)c12`, for which the IC50 in [8] came out at 28 nM; in [5], 28 nM; in experiment [6], 10 nM.

For the compound `COc1cccc2c1C(=O)c1c(O)c3c(c(O)c1C2=O)C[C@@](O)(C(C)=O)C[C@@H]3O[C@H]1C[C@H](NCCCCn2ccnc2[N+](=O)[O-])[C@H](O)[C@H](C)O1`, the IC50 was 5700 nM in experiment [9] and 4 nM in experiment [10]. As to `CC#Cc1c(OC)ccc2c(C(=O)c3cc(OC)c(OC)c(OC)c3)nn(C[N+](C)(C)Cc3c(-c4ccc(F)cc4)nc([N+](=O)[O-])n3C)c12`, the IC50 in experiment [8] is 25 nM; in experiment [5], 31 nM; in [6] it was 25 nM.

In [7], `Cn1cc([N+](=O)[O-])nc1C[N+](C)(C)C/C=C/C(=O)Nc1ccc2ncnc(Nc3cccc(Br)c3)c2c1` showed an IC50 of 0.22 to 0.56 nM. Consider `COc1ccc(C[C@@H](C)[C@@H](C)Cc2ccc(OC)c(OCCOCCOCCOCCn3ccnc3[N+](=O)[O-])c2)cc1OC`, for which the IC50 worked out at 12600 nM in [11] and 53200 nM in experiment [12].

As for `Cn1ncc([N+](=O)[O-])c1C[N+](C)(C)C/C=C/C(=O)Nc1ccc2ncnc(Nc3cccc(Br)c3)c2c1`, the IC50 in experiment [7] lay in the range of 0.22 to 0.56 nM. Consider `COc1cccc2c1C(=O)c1c(O)c3c(c(O)c1C2=O)C[C@@](O)(C(C)=O)C[C@@H]3O[C@H]1C[C@H](N(COCCn2ccnc2[N+](=O)[O-])COCCn2ccnc2[N+](=O)[O-])[C@H](O)[C@H](C)O1`, for which the IC50 was determined as 20000 nM in experiment [9] and 50 nM in experiment [10]. For `COc1cccc2c1C(=O)c1c(O)c3c(c(O)c1C2=O)C[C@@](O)(C(C)=O)C[C@@H]3O[C@H]1C[C@H](n2ccnc2[N+](=O)[O-])[C@H](O)[C@H](C)O1`, the IC50 worked out at 2300 nM in [9] and 12 nM in experiment [10].

In experiment [7], `C[N+](C)(C/C=C/C(=O)Nc1ccc2ncnc(Nc3cccc(Br)c3)c2c1)Cc1ccccc1[N+](=O)[O-]` showed an IC50 of 0.22 to 0.56 nM. Take `N#Cc1cc(COP(=O)(NCCBr)NCCBr)sc1[N+](=O)[O-]`: the IC50 in experiment [2] was 6 nM; in experiment [3], 10 nM; in experiment [4], 20 nM. `CC#Cc1c(OC)ccc2c(C(=O)c3cc(OC)c(OC)c(OC)c3)nn(Cn3cc[n+](Cc4ccc([N+](=O)[O-])o4)c3)c12`: the IC50 amounted to 14 nM in experiment [5] and 1 nM in experiment [6]. As for `CC#Cc1c(OC)ccc2c(C(=O)c3cc(OC)c(OC)c(OC)c3)nn(C[N+](C)(C)Cc3c(-c4ccc(Br)o4)nc([N+](=O)[O-])n3C)c12`, the IC50 came to 18 nM in experiment [5] and 17 nM in experiment [6]. As for `CC(=O)O[C@H]1C(=O)[C@@]2(C)[C@H]([C@H](OC(=O)c3ccccc3)[C@]3(O)C[C@H](OC(=O)[C@H](OC(=O)N(C)CCN(C)C(=O)OC(C)c4ccc([N+](=O)[O-])c(Oc5ccc6ncccc6c5)c4)[C@@H](NC(=O)c4ccccc4)c4ccccc4)C(C)=C1C3(C)C)[C@]1(OC(C)=O)CO[C@@H]1C[C@@H]2O` (stereo not given in full), the IC50 in experiment [4] worked out at 30 nM. Regarding `Cn1c(C[N+](C)(C)C/C=C/C(=O)Nc2ccc3ncnc(Nc4cccc(Br)c4)c3c2)ccc1[N+](=O)[O-]`, in experiment [7], the IC50 fell in the range of 0.22 to 0.56 nM. For `CC#Cc1c(OC)ccc2c(C(=O)c3cc(OC)c(OC)c(OC)c3)nn(C[N+](C)(C)Cc3ccc([N+](=O)[O-])o3)c12`, the IC50 was 45 nM in experiment [5] and 12 nM in [6]. Turning to `NC(=O)c1cc(N2CC2)ncc1[N+](=O)[O-]`, the IC50 amounted to 1100 nM in experiment [2] and 19600 nM in experiment [3]. `COc1ccc(C[C@@H](C)[C@@H](C)Cc2ccc(OC)c(OCCOCCOCCOCCn3cnc([N+](=O)[O-])c3)c2)cc1OC`: the IC50 in experiment [11] is 13000 nM; in experiment [12] it was 64300 nM.

The compound `Cn1cnc([N+](=O)[O-])c1C[N+](C)(C)C/C=C/C(=O)Nc1ccc2ncnc(Nc3cccc(Br)c3)c2c1` returned an IC50 in [7] of 0.22 to 0.56 nM.

In the case of `COc1ccc(C[C@@H](C)[C@@H](C)Cc2ccc(OCCOCCOCCOCCn3cnc([N+](=O)[O-])c3)c(OC)c2)cc1OC`, the IC50 in [11] was 12500 nM; in [12] it was 52100 nM. As to `C=Cc1nc([N+](=O)[O-])n(C)c1C[N+](C)(C)Cn1nc(C(=O)c2cc(OC)c(OC)c(OC)c2)c2ccc(OC)c(C#CC)c21`, the figures for the IC50 in experiment [8], in experiment [5] and in [6] were 20 nM, 48 nM and 7 nM, respectively. Consider `CC(=O)O[C@H]1C(=O)[C@@]2(C)[C@H]([C@H](OC(=O)c3ccccc3)[C@]3(O)C[C@H](OC(=O)[C@H](OC(=O)N(C)CCN(C)C(=O)OCc4ccc([N+](=O)[O-])c(Oc5ccc6ncccc6c5)c4)[C@@H](NC(=O)c4ccccc4)c4ccccc4)C(C)=C1C3(C)C)[C@]1(OC(C)=O)CO[C@@H]1C[C@@H]2O`, for which inhibition in experiment [4] was half-maximal at 30 nM (IC50). Regarding `CC(OP(=O)(NCCBr)NCCBr)c1ccc([N+](=O)[O-])s1` (stereo not given), the values for the IC50 in [2], in experiment [3] and in experiment [4] were 30 nM, 200 nM and 500 nM, respectively. As to `CC#Cc1c(OC)ccc2c(C(=O)c3cc(OC)c(OC)c(OC)c3)nn(C[N+](C)(C)Cc3c(CCC)nc([N+](=O)[O-])n3C)c12`, the IC50 in experiment [5] is 40 nM; in experiment [6], 18 nM. For `COc1cc2cc(C(=O)N3CC(CCl)c4c3cc([N+](=O)[O-])c3c(C(C)=O)cccc43)[nH]c2c(OC)c1OC` (stereo not given), the IC50 in experiment [1] turned out to be 500 nM; in [13] it was 680 nM. The like results for `CN(C)CCOc1ccc2[nH]c(C(=O)N3CC(CCl)c4c3cc([N+](=O)[O-])c3c(C#N)cccc43)cc2c1` (stereo not given) were, in that order, 170 nM and 120 nM. The like results for `COC(=O)c1ccc2c3c(cc([N+](=O)[O-])c2c1)N(C(=O)c1cc2cc(OCCN(C)C)ccc2[nH]1)CC3CCl` (stereo not given) were, in that order, 440 nM and 320 nM. As to `CC(=O)c1ccc2c([N+](=O)[O-])cc3c(c2c1)C(CCl)CN3C(=O)c1cc2cc(OCCN(C)C)ccc2[nH]1` (stereo not given), the IC50 in experiment [1] is 210 nM; in [13] it was 150 nM. In the case of `Cn1c(COP(=O)(NCCBr)NCCBr)cnc1[N+](=O)[O-]` [EVOFOSFAMIDE], the IC50 is 2000 nM in experiment [2], 25000 nM in [3] and more than 100000 nM in experiment [4].
